Each molecule was assayed on HEK293 cells (assay: Preliminary screening as DNA vectors, GFP transfection of HEK293 cells). Conditions: amino lipid/DOPE liposome with 75 ng plasmid DNA (psin-EGFP-IRES-Puro); number of GFP-expressing cells divided by total nuclei (Hoechst).
Type: cell-based
In short: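 First, amino lipid and DOPE were vortexed in sodium acetate buffer (pH 5.6) to form liposomes. Next, these were held with 75 ng EGFP plasmid at room temperature for 30 min. Finally, HEK293 cells were added, cultured at 37° C., Hoechst-stained, and GFP+/total nuclei scored by imaging.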

SMILES | Absolute DNA transfection efficiency in HEK293 cells
CCCCCCCCCCCCCCSc1nc(NCCCCCCCCC)nc(NCCCN(C)C)n1 [S14N9 D6] | 43.9%
CCCCCCCCCCCCCCSc1nc(NCCCCCCCCC)nc(NCCN(CC)CC)n1 [S14N9 D7] | 10.6%
CCCCCCCCCCCCCCSc1nc(NCCCCCCCCC)nc(NCCCN2CCOCC2)n1 [S14N9 D8] | 10.7%
CCCCCCCCCCCCCCSc1nc(NCCCCCCCCC)nc(NCCCN2CCN(C)CC2)n1 [S14N9 D9] | 16.7%
CCCCCCCCCCCCCCSc1nc(NCCCCCCCCC)nc(NCC2CCN(C)CC2)n1 [S14N9 D10] | 17.6%
CCCCCCCCCCCCCCSc1nc(NCCCCCCCCCCC)nc(NCCN(C)C)n1 [S14N11 D1] | 11.8%
CCCCCCCCCCCCCCSc1nc(NCCCCCCCCCCC)nc(NCCN2CCOCC2)n1 [S14N11 D2] | 12.5%
CCCCCCCCCCCCCCSc1nc(NCCCCCCCCCCC)nc(NCCN2CCCC2)n1 [S14N11 D3] | 25.2%
CCCCCCCCCCCCCCSc1nc(NCCCCCCCCCCC)nc(NCCN2CCCCC2)n1 [S14N11 D4] | 3.1%
CCCCCCCCCCCCCCSc1nc(NCCCCCCCCCCC)nc(NCCN2CCN(C)CC2)n1 [S14N11 D5] | 13.3%
CCCCCCCCCCCCCCSc1nc(NCCCCCCCCCCC)nc(NCCCN(C)C)n1 [S14N11 D6] | 17.0%
CCCCCCCCCCCCCCSc1nc(NCCCCCCCCCCC)nc(NCCN(CC)CC)n1 [S14N11 D7] | 8.6%
CCCCCCCCCCCCCCSc1nc(NCCCCCCCCCCC)nc(NCCCN2CCOCC2)n1 [S14N11 D8] | 2.2%
CCCCCCCCCCCCCCSc1nc(NCCCCCCCCCCC)nc(NCCCN2CCN(C)CC2)n1 [S14N11 D9] | 10.2%
CCCCCCCCCCCCCCSc1nc(NCCCCCCCCCCC)nc(NCC2CCN(C)CC2)n1 [S14N11 D10] | 9.0%
CCCCCCCCCCCCCCSc1nc(NCCCCCCCCCCCC)nc(NCCN(C)C)n1 [S14N12 D1] | 15.3%
CCCCCCCCCCCCCCSc1nc(NCCCCCCCCCCCC)nc(NCCN2CCOCC2)n1 [S14N12 D2] | 1.6%
CCCCCCCCCCCCCCSc1nc(NCCCCCCCCCCCC)nc(NCCN2CCCC2)n1 [S14N12 D3] | 21.0%
CCCCCCCCCCCCCCSc1nc(NCCCCCCCCCCCC)nc(NCCN2CCCCC2)n1 [S14N12 D4] | 3.8%
CCCCCCCCCCCCCCSc1nc(NCCCCCCCCCCCC)nc(NCCN2CCN(C)CC2)n1 [S14N12 D5] | 9.8%
CCCCCCCCCCCCCCSc1nc(NCCCCCCCCCCCC)nc(NCCCN(C)C)n1 [S14N12 D6] | 6.3%
CCCCCCCCCCCCCCSc1nc(NCCCCCCCCCCCC)nc(NCCN(CC)CC)n1 [S14N12 D7] | 1.1%
CCCCCCCCCCCCCCSc1nc(NCCCCCCCCCCCC)nc(NCCCN2CCOCC2)n1 [S14N12 D8] | 2.1%

SMILES | Absolute DNA transfection efficiency in HEK293 cells
CCCCCCCCCCCCCCSc1nc(NCCCCCCCCCCCC)nc(NCCCN2CCN(C)CC2)n1 [S14N12 D9] | 4.1%
CCCCCCCCCCCCCCSc1nc(NCCCCCCCCCCCC)nc(NCC2CCN(C)CC2)n1 [S14N12 D10] | 5.8%
CCCCCCCCCCCCCCSc1nc(NCCCCCCCCCCCCC)nc(NCCN(C)C)n1 [S14N13 D1] | 1.1%
CCCCCCCCCCCCCCSc1nc(NCCCCCCCCCCCCC)nc(NCCN2CCOCC2)n1 [S14N13 D2] | 0.0%
CCCCCCCCCCCCCCSc1nc(NCCCCCCCCCCCCC)nc(NCCN2CCCC2)n1 [S14N13 D3] | 9.1%
CCCCCCCCCCCCCCSc1nc(NCCCCCCCCCCCCC)nc(NCCN2CCCCC2)n1 [S14N13 D4] | 3.9%
CCCCCCCCCCCCCCSc1nc(NCCCCCCCCCCCCC)nc(NCCN2CCN(C)CC2)n1 [S14N13 D5] | 1.9%
CCCCCCCCCCCCCCSc1nc(NCCCCCCCCCCCCC)nc(NCCCN(C)C)n1 [S14N13 D6] | 2.6%
CCCCCCCCCCCCCCSc1nc(NCCCCCCCCCCCCC)nc(NCCN(CC)CC)n1 [S14N13 D7] | 2.8%
CCCCCCCCCCCCCCSc1nc(NCCCCCCCCCCCCC)nc(NCCCN2CCOCC2)n1 [S14N13 D8] | 0.3%
CCCCCCCCCCCCCCSc1nc(NCCCCCCCCCCCCC)nc(NCCCN2CCN(C)CC2)n1 [S14N13 D9] | 1.4%
CCCCCCCCCCCCCCSc1nc(NCCCCCCCCCCCCC)nc(NCC2CCN(C)CC2)n1 [S14N13 D10] | 2.2%
CCCCCCCCCCCCCCCNc1nc(NCCN(C)C)nc(SCCCCCCCCCCCCCC)n1 [S14N15 D1] | 0.4%
CCCCCCCCCCCCCCCNc1nc(NCCN2CCOCC2)nc(SCCCCCCCCCCCCCC)n1 [S14N15 D2] | 0.1%
CCCCCCCCCCCCCCCNc1nc(NCCN2CCCC2)nc(SCCCCCCCCCCCCCC)n1 [S14N15 D3] | 1.0%
CCCCCCCCCCCCCCCNc1nc(NCCN2CCCCC2)nc(SCCCCCCCCCCCCCC)n1 [S14N15 D4] | 0.4%
CCCCCCCCCCCCCCCNc1nc(NCCN2CCN(C)CC2)nc(SCCCCCCCCCCCCCC)n1 [S14N15 D5] | 0.4%
CCCCCCCCCCCCCCCNc1nc(NCCCN(C)C)nc(SCCCCCCCCCCCCCC)n1 [S14N15 D6] | 0.8%
CCCCCCCCCCCCCCCNc1nc(NCCN(CC)CC)nc(SCCCCCCCCCCCCCC)n1 [S14N15 D7] | 1.1%
CCCCCCCCCCCCCCCNc1nc(NCCCN2CCOCC2)nc(SCCCCCCCCCCCCCC)n1 [S14N15 D8] | 0.3%
CCCCCCCCCCCCCCCNc1nc(NCCCN2CCN(C)CC2)nc(SCCCCCCCCCCCCCC)n1 [S14N15 D9] | 0.7%
CCCCCCCCCCCCCCCNc1nc(NCC2CCN(C)CC2)nc(SCCCCCCCCCCCCCC)n1 [S14N15 D10] | 0.7%
CCCCCCCCCCCCCCCCNc1nc(NCCN(C)C)nc(SCCCCCCCCCCCCCC)n1 [S14N16 D1] | 0.7%

SMILES | Absolute DNA transfection efficiency in HEK293 cells
CCCCCCCCCCCCCCCCNc1nc(NCCN2CCOCC2)nc(SCCCCCCCCCCCCCC)n1 [S14N16 D2] | 0.0%
CCCCCCCCCCCCCCCCNc1nc(NCCN2CCCC2)nc(SCCCCCCCCCCCCCC)n1 [S14N16 D3] | 1.3%
CCCCCCCCCCCCCCCCNc1nc(NCCN2CCCCC2)nc(SCCCCCCCCCCCCCC)n1 [S14N16 D4] | 1.9%
CCCCCCCCCCCCCCCCNc1nc(NCCN2CCN(C)CC2)nc(SCCCCCCCCCCCCCC)n1 [S14N16 D5] | 0.9%
CCCCCCCCCCCCCCCCNc1nc(NCCCN(C)C)nc(SCCCCCCCCCCCCCC)n1 [S14N16 D6] | 0.8%
CCCCCCCCCCCCCCCCNc1nc(NCCN(CC)CC)nc(SCCCCCCCCCCCCCC)n1 [S14N16 D7] | 1.3%
CCCCCCCCCCCCCCCCNc1nc(NCCCN2CCOCC2)nc(SCCCCCCCCCCCCCC)n1 [S14N16 D8] | 0.1%
CCCCCCCCCCCCCCCCNc1nc(NCCCN2CCN(C)CC2)nc(SCCCCCCCCCCCCCC)n1 [S14N16 D9] | 0.9%
CCCCCCCCCCCCCCCCNc1nc(NCC2CCN(C)CC2)nc(SCCCCCCCCCCCCCC)n1 [S14N16 D10] | 0.7%
CCCCCCCCCCCCCCCCCCNc1nc(NCCN(C)C)nc(SCCCCCCCCCCCCCC)n1 [S14N18 D1] | 0.9%
CCCCCCCCCCCCCCCCCCNc1nc(NCCN2CCOCC2)nc(SCCCCCCCCCCCCCC)n1 [S14N18 D2] | 0.0%
CCCCCCCCCCCCCCCCCCNc1nc(NCCN2CCCC2)nc(SCCCCCCCCCCCCCC)n1 [S14N18 D3] | 1.7%
CCCCCCCCCCCCCCCCCCNc1nc(NCCN2CCCCC2)nc(SCCCCCCCCCCCCCC)n1 [S14N18 D4] | 0.7%
CCCCCCCCCCCCCCCCCCNc1nc(NCCN2CCN(C)CC2)nc(SCCCCCCCCCCCCCC)n1 [S14N18 D5] | 0.6%
CCCCCCCCCCCCCCCCCCNc1nc(NCCCN(C)C)nc(SCCCCCCCCCCCCCC)n1 [S14N18 D6] | 0.9%
CCCCCCCCCCCCCCCCCCNc1nc(NCCN(CC)CC)nc(SCCCCCCCCCCCCCC)n1 [S14N18 D7] | 1.2%
CCCCCCCCCCCCCCCCCCNc1nc(NCCCN2CCOCC2)nc(SCCCCCCCCCCCCCC)n1 [S14N18 D8] | 0.1%
CCCCCCCCCCCCCCCCCCNc1nc(NCCCN2CCN(C)CC2)nc(SCCCCCCCCCCCCCC)n1 [S14N18 D9] | 0.3%
CCCCCCCCCCCCCCCCCCNc1nc(NCC2CCN(C)CC2)nc(SCCCCCCCCCCCCCC)n1 [S14N18 D10] | 0.1%
CCCCCCCCCCCCCCSc1nc(NCCN(C)C)nc(N(CCCCCCCCCCCC)CCCCCCCCCCCC)n1 [S14^2N12 D1] | 0.3%
CCCCCCCCCCCCCCSc1nc(NCCN2CCOCC2)nc(N(CCCCCCCCCCCC)CCCCCCCCCCCC)n1 [S14^2N12 D2] | 0.0%
CCCCCCCCCCCCCCSc1nc(NCCN2CCCC2)nc(N(CCCCCCCCCCCC)CCCCCCCCCCCC)n1 [S14^2N12 D3] | 0.2%

Source: patent US20230123334A1, “AMINO LIPID COMPOUND, PREPARATION METHOD THEREFOR, AND APPLICATION THEREOF” (SHENZHEN SHENXIN BIOTECHNOLOGY CO., LTD., priority 2020, published 2023)
